Measured values as given in US20260306460A1, “COMPOSITION FOR REMOVING AND INHIBITING SENESCENT CELLS, AND USES THEREOF” (LIFECEUTIX CO., LTD., priority 2023, published 2026).

Legend:
senescent cells = assay: Viability of senescent cells (CellTiter-Glo), Example 17, Table 13; settings: Homo sapiens, read-out: Survival (%)
Procedure: Cells induced to undergo senescence by doxorubicin treatment were treated with test compound at designated concentrations and measured using the CellTiter-Glo Luminescent Cell Viability Assay (Promega).

[1] = tested on: bleomycin-induced pulmonary fibrosis mice; assay: Bleomycin-induced pulmonary fibrosis mice, Example 31, Table 56; format: in vivo, mouse; settings: untreated = 100%
Procedure: (§1) The control group was administered only the solution in the same volume. After the end of drug administration, the method described in each example below was performed. Liver, kidney, skin, knee joint, heart, and femur tissues were collected from mice in which natural aging was induced in the same manner as in Examples 7-2 and 7-6 of WO2023-085787 A1. Lung tissues were collected from mice in which pulmonary fibrosis was induced using the same method as in Example 24-1. Liver tissues were collected from mice in which hepatic fibrosis was induced using the same method as in Example 26, and total RNA was extracted. qRT-PCR was performed and analyzed using the synthesized cDNA. […] The mRNA amounts of p16, MMP3, and IL6 after natural aging was induced were calculated as 100% and compared with the mRNA amounts of p16, MMP3, and IL6 after treatment with the test compound. In addition, an open field test for the analysis of aging-related frailty, agtr1a mRNA analysis for kidney damage and disease evaluation, col1a1 and SDF1 mRNA analysis for skin aging evaluation such as wrinkles/loss of elasticity/hyperpigmentation, col2a1 mRNA analysis for evaluating joint aging such as osteoarthritis, sur2a mRNA analysis for evaluating cardiac aging such as decreased cardiac load resistance, ctsk mRNA analysis for evaluating bone diseases due to aging such as osteoporosis, muscle tissue weight for analyzing sarcopenia, fat tissue weight for analyzing lipoatrophy, and cataract incidence analysis were performed in mice. For cataract incidence analysis, the drug was administered twice a week under the conditions specified above, and biweekly examinations were conducted until death.
The table below quantitatively presents the evaluation results for each item in mice with bleomycin-induced pulmonary fibrosis, untreated and treated with the test compound.

senescent A549 cells = assay: Viability of senescent A549 cells (CellTiter-Glo), Example 18, Table 15; settings: Homo sapiens, A549, read-out: Survival (%)
Procedure: Senescence-induced cancer cells treated with doxorubicin were treated with the test compound at designated concentrations, and cell viability was measured using the CellTiter-Glo Luminescent Cell Viability Assay (Promega).

[2] = tested on: carbon tetrachloride-induced liver fibrosis mice; assay: Carbon tetrachloride-induced liver fibrosis mice, Example 31, Table 57; format: in vivo, mouse; settings: CCl4-induced liver fibrosis mice, untreated = 100%
Procedure: as §1

naturally aged mice = assay: Anti-aging evaluation in naturally aged mice, Example 31, Table 55; format: in vivo, mouse; settings: for Femur Ctsk mRNA / Kidney Agtr1a mRNA / Liver IL6 mRNA / Liver MMP3 mRNA / Liver p16 mRNA / Open Field Test Time in Center: untreated = 100%; for Heart Sur2a mRNA / Joint Col2a1 mRNA / Skin Col1a1 mRNA / Skin SDF1 mRNA: untreated = 1.0; for Muscle Mass: untreated 0.64 g; for Fat Mass: untreated 0.82 g; for Cataract incidence: untreated 83%;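 for all read-outs here: Vehicle-dosed control mice received solution alone at matching volume, values compare test-compound-treated aged mice against that control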

Compound | viability at 1.1 µM (senescent cells) [%] | viability at 10 µM (senescent cells) [%] | Lung p16 mRNA [1] | Col1a1 mRNA [1] | viability at 1.1 µM (senescent A549 cells) [%] | viability at 10 µM (senescent A549 cells) [%] | Liver p16 mRNA [2] | Col1a1 mRNA [2] | Femur Ctsk mRNA (naturally aged mice) [%] | Heart Sur2a mRNA (naturally aged mice) [fold] | Joint Col2a1 mRNA (naturally aged mice) [fold] | Kidney Agtr1a mRNA (naturally aged mice) [%] | Liver IL6 mRNA (naturally aged mice) [%] | Liver MMP3 mRNA (naturally aged mice) [%] | Liver p16 mRNA (naturally aged mice) [%] | Open Field Test Time in Center (naturally aged mice) [%] | Skin Col1a1 mRNA (naturally aged mice) [Fold] | Skin SDF1 mRNA (naturally aged mice) [fold] | Muscle Mass (naturally aged mice) [g] | Fat Mass (naturally aged mice) [g] | also measured
C=C1CC[C@@H]2[C@](C)(CO)[C@H](O)CC[C@@]2(C)[C@@H]1C/C=C1/C(=O)OC[C@H]1O [LX-6800, Andrographolide] | 81.6 | 56.5 | 78 (±3.8) % | 62 (±3.6) % | 80.9 | 70.9 | 80 (±4.9) % | 76 (±2.7) % | 58 | 2.3 | 2.4 | 78 | 56 | 77 | 73 | 154 | 2.1 | 2.0 | 0.70 | 0.91 | viability at 30 µM (senescent cells): 2.2%; viability at 30 µM (senescent A549 cells): 43.8%; viability at 90 µM (senescent A549 cells): 17%; Cataract incidence (naturally aged mice): 75%
C[C@@H](C(=O)Nc1ccc(Cl)cc1)[C@H]1CC[C@@H](c2ccnc3ccc(F)cc32)CC1 [LX-8805, Linrodostat] | 99.1 | 42.1 | 40 (±2.1) % | 70 (±4.6) % | 103 | 58.3 | 60 (±3.9) % | 36 (±3.4) % | 58 | 2.6 | 2.6 | 55 | 25 | 67 | 47 | 217 | 1.7 | 1.9 | 0.72 | 0.87 | viability at 30 µM (senescent cells): 21.8%; viability at 30 µM (senescent A549 cells): 32.8%; Cataract incidence (naturally aged mice): 68%
NC(=O)c1ncn([C@@H]2O[C@H](CO)[C@@H](O)[C@H]2O)n1 [LX-6537, Ribavirin] | 90.9 | 67.3 | 64 (±3.2) % | 67 (±3.9) % | 102 | 66.8 | 77 (±5.7) % | 81 (±4.1) % | 67 | 1.6 | 2.2 | 73 | 48 | 67 | 74 | 177 | 1.9 | 1.4 | 0.68 | 0.85 | viability at 30 µM (senescent cells): 12.2%; viability at 30 µM (senescent A549 cells): 2.4%; Cataract incidence (naturally aged mice): 72%
O=C1C2CCN(CC2)C1(CO)COCc1ccccc1 (stereo not shown) [LX-5711] | 95.1 | 63.7 | 70 (±3.8) % | 71 (±4.0) % | 89 | 52.5 | 63 (±4.3) % | 74 (±3.0) % | 62 | 2.3 | 2.3 | 63 | 48 | 61 | 65 | 191 | 1.5 | 1.8 | 0.68 | 0.93 | viability at 30 µM (senescent cells): 20.6%; viability at 30 µM (senescent A549 cells): 11.9%; Cataract incidence (naturally aged mice): 72%
Nc1ccc(/C=C/C(=O)NCc2cc3cc(-c4ccc(C(=O)N5CCC(F)(F)CC5)cc4)cc(-c4ccc(F)cc4)c3o2)cn1 [LX-8812, Padnarsertib] | 94.6 | 49.3 | 67 (±5.6) % | 77 (±6.2) % | 100 | 61.6 | 63 (±3.9) % | 64 (±3.1) % | 62 | 2.0 | 2.6 | 51 | 53 | 42 | 59 | 188 | 3.4 | 2.9 | 0.70 | 0.96 | viability at 30 µM (senescent cells): 29.2%; viability at 30 µM (senescent A549 cells): 24.9%; Cataract incidence (naturally aged mice): 54%
[2H]C12CCN(CC1)C(CO)(COC)C2=O (stereo not shown) [LX-5722] | 91.5 | 34.1 | 73 (±5.5) % | 78 (±7.2) % | 99 | 4.1 | 69 (±6.2) % | 76 (±6.4) % | 59 | 2.4 | 2.1 | 52 | 73 | 63 | 46 | 222 | 1.8 | 1.6 | 0.70 | 1.03 | viability at 30 µM (senescent cells): 1.8%; Cataract incidence (naturally aged mice): 69%
CC12CCN(CC1)C(CNC(=O)C(F)(F)F)C2=O (stereo not shown) [LX-5706] | 96.5 | 12.7 | 76 (±6.1) % | 79 (±5.2) % | 88.5 | 31 | 69 (±6.9) % | 70 (±4.8) % | 68 | 2 | 1.9 | 70 | 71 | 60 | 64 | 171 | 1.6 | 1.4 | 0.69 | 0.85 | viability at 30 µM (senescent A549 cells): 0.3%; Cataract incidence (naturally aged mice): 74%
Cn1cc(C[C@@H](N)C(=O)O)c2ccccc21 [LX-8801, Indoximod] | 69.1 | 1.2 | 44 (±3.0) % | 67 (±4.5) % | 62.5 | 8.4 | 49 (±4.3) % | 53 (±3.5) % | 35 | 2.9 | 1.7 | 72 | 33 | 63 | 54 | 205 | 2.1 | 2.6 | 0.69 | 0.94 | Cataract incidence (naturally aged mice): 59%
